Source: US10570179B2, “Substituted urea depsipeptide analogs as activators of the CLPP endopeptidase” (priority 2016, dated 2020)
Numbered stars: 1 amine (or outer) side, 2 acyl side, 3 side chain; on linkers, the order of the positions; unused ones are H or OH. Bridge positions count the residues as written; N and C are the ends. Square brackets hold non-standard residues; d marks the D form. Peptide text beside a SMILES is read from it. * marks the point of attachment. Piperazine(2S-CO,4-Me) = CN1CCN[C@H](C(=O)O)C1; NH(1,3-benzodioxol-5-yl) = c1cc2c(cc1N*)OCO2; Morpholine(3S-CO) = O=C(O)[C@@H]1COCCN1; Phe(3-Me) = Cc1cccc(C[C@H](N)C(=O)O)c1; NH(4-Cl-2-F-phenyl) = Fc1cc(Cl)ccc1N*; Pro(4R-Me) = C[C@H]1CN[C@H](C(=O)O)C1; Hyp = O=C(O)[C@@H]1C[C@@H](O)CN1; NH(4-Et-phenyl) = CCc1ccc(N*)cc1; aThr = C[C@H](O)[C@H](N)C(=O)O; X3 = c1cc2c(cc1N*)OCCO2; CO = O=C([*:1])[*:2]

Tests used:
Sa-ClpP = molecular target: T1, Sa-ClpP (Staphylococcus aureus, UniProt Q2G036); assay: ADEP displacement fluorescence polarization assay; type: binding, S. aureus; conditions: displacement of FP probe ADEP 2591 from Sa-ClpP
T1 construct: made in house; host or cells: E. coli BL21 (DE3)
How it was run: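 Master mix of 15 μM Sa-ClpP and 50 nM TAMRA-labelled ADEP 2591 probe in Tris-HCl pH 8.0, 2% DMSO, was pre-equilibrated 1 h at RT, then compounds were added and incubated 120 min at RT. Polarization (ex 530, em 579 nm, mP) was normalised to 200 μM ADEP 2378 and DMSO controls and fitted by four-parameter regression, in triplicate.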

[1] = Plasma protein binding, rapid equilibrium dialysis; type: in vitro ADME, mouse; conditions: mouse, 4 h, 10 μM, pH 7.4

T1 sequence (Q2G036 whole entry): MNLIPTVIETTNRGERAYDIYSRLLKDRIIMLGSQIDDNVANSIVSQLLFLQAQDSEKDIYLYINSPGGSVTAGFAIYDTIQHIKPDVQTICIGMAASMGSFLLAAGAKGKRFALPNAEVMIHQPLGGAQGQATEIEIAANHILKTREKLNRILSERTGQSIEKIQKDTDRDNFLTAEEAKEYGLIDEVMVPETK

SMILES	IC50 (Sa-ClpP) [µM]	Mouse [1] [%]
Cc1cccc(C[C@H](NC(=O)Nc2ccc(Cl)cc2F)C(=O)N[C@@H]2C(=O)N3CCC[C@H]3C(=O)N3CCN(C)C[C@H]3C(=O)N[C@@H](C)C(=O)N3C[C@H](C)C[C@H]3C(=O)O[C@H]2C)c1 [Compound 11, (S)-2-(3-(4-CHLORO-2-FLUOROPHENYL)UREIDO)-N-((6AS,12S,13S,15AS,17R,21S,23AS)-2,13,17,21-TETRAMETHYL-6,11,15,20,23-PENTAOXOOCTADECAHYDRO-2H,6H,11H,15H-PYRAZINO[2,1-I]DIPYRROLO[2,1-C:2′,1′-L][1]OXA[4,7,10,13]TETRAAZACYCLOHEXADECIN-12-YL)-3-(M-TOLYL)PROPANAMIDE] ({NH(4-Cl-2-F-phenyl)-CO}-[Phe(3-Me)][aThr]P[Piperazine(2S-CO,4-Me)]A[Pro(4R-Me)]; ester 2-C)	3.45 ± 0.2	98.8 ± 0.4
Cc1cccc(C[C@H](NC(=O)Nc2ccc3c(c2)OCCO3)C(=O)N[C@@H]2C(=O)N3C[C@H](O)C[C@H]3C(=O)N3CCOC[C@H]3C(=O)N[C@@H](C)C(=O)N3C[C@H](C)C[C@H]3C(=O)O[C@H]2C)c1 [Compound 27, (S)-2-(3-(2,3-DIHYDROBENZO[B][1,4]DIOXIN-6-YL)UREIDO)-N-((6AS,8R,12S,13S,15AS,17R,21S,23AS)-8-HYDROXY-13,17,21-TRIMETHYL-6,11,15,20,23-PENTAOXOOCTADECAHYDRO-6H,11H,15H-[1,4]OXAZINO[3,4-I]DIPYRROLO[2,1-C:2′,1′-L][1]OXA[4,7,10,13]TETRAAZACYCLOHEXADECIN-12-YL)-3-(M-TOLYL)PROPANAMIDE] ({X3-CO}-[Phe(3-Me)][aThr][Hyp][Morpholine(3S-CO)]A[Pro(4R-Me)]; ester 2-C)	5.13 ± 0.16	93.2 ± 3.2
Cc1cccc(C[C@H](NC(=O)Nc2ccc3c(c2)OCO3)C(=O)N[C@H]2COC(=O)[C@@H]3C[C@@H](C)CN3C(=O)[C@H](C)NC(=O)[C@@H]3CN(C)CCN3C(=O)[C@@H]3CCCN3C2=O)c1 [Compound 17, (S)-2-(3-(BENZO[D][1,3]DIOXOL-5-YL)UREIDO)-3-(M-TOLYL)-N-((6AS,12S,15AS,17R,21S,23AS)-2,17,21-TRIMETHYL-6,11,15,20,23-PENTAOXOOCTADECAHYDRO-2H,6H,11H,15H-PYRAZINO[2,1-I]DIPYRROLO[2,1-C:2′,1′-L][1]OXA[4,7,10,13]TETRAAZACYCLOHEXADECIN-12-YL)PROPANAMIDE] ({NH(1,3-benzodioxol-5-yl)-CO}-[Phe(3-Me)]SP[Piperazine(2S-CO,4-Me)]A[Pro(4R-Me)]; ester 2-C)	6.02 ± 0.2	88.4 ± 1.6
CCc1ccc(NC(=O)N[C@@H](Cc2cccc(C)c2)C(=O)N[C@@H]2C(=O)N3C[C@H](O)C[C@H]3C(=O)N3CCOC[C@H]3C(=O)N[C@@H](C)C(=O)N3C[C@H](C)C[C@H]3C(=O)O[C@H]2C)cc1 [Compound 24, (S)-2-(3-(4-ETHYLPHENYL)UREIDO)-N-((6AS,8R,12S,13S,15AS,17R,21S,23AS)-8-HYDROXY-13,17,21-TRIMETHYL-6,11,15,20,23-PENTAOXOOCTADECAHYDRO-6H,11H,15H-[1,4]OXAZINO[3,4-I]DIPYRROLO[2,1-C:2′,1′-L][1]OXA[4,7,10,13]TETRAAZACYCLOHEXADECIN-12-YL)-3-(M-TOLYL)PROPANAMIDE] ({NH(4-Et-phenyl)-CO}-[Phe(3-Me)][aThr][Hyp][Morpholine(3S-CO)]A[Pro(4R-Me)]; ester 2-C)	2.31 ± 0.2	98.2 ± 0.1
